Measurements as given in patent US20100056519A1, “COMPOSITION AND METHOD FOR REDUCING PLATELET ACTIVATION AND FOR THE TREATMENT OF THROMBOTIC EVENTS” (priority 2008, published 2010).

Key:
Assay type in all cases: cell-based, human
[1] = tested on: P-selectin (CD62p); assay: TRAP-stimulated whole blood flow cytometry, P-selectin; conditions: Mean ± SD
Method: (§1) The methodology employed was conventional aggregation induced by 5 μM ADP, 1 μg/ml collagen, 10 μM TRAP, whole blood aggregation with 1 μg/ml collagen, Ultegra, and PFA-100 Analyzers, expression of 14 intact, and TRAP-stimulated major receptors by whole blood flow cytometry were utilized to assess platelet activity after preincubation with escalating concentrations of E5555 (20 ng/ml, 50 ng/ml, and 100 ng/ml). The experiments were performed in healthy volunteers, CAD patients treated with ASA, and CAD patients treated with ASA and clopidogrel combination (n=10, for each group).
(§2) An Informed Consent was obtained from all volunteers. Drug users were excluded from data analysis. The study was approved by Quorum Institutional Review Board. All subjects underwent blood sampling after at least 30 minutes of rest and two or more hours of fasting. Blood (28 ml) was drawn between 8 and 10 a.m. in order to avoid any diurnal influence and sampled from an antecubital vein using a 21-gauge butterfly needle containing 3.2% sodium citrate (1:9 volume) after having discarded the first 1.5 ml of free running blood. Four Vacutainer tubes (7.0 ml) were collected for a total of 28 ml of whole blood-citrate mixture from each study participant. Chronologically, blood samples were delivered to the core laboratory facility within 45 minutes after drawing. Then all tubes of blood-citrate mixture were pooled. One portion of pooled blood (5 ml) was kept as an internal control and pretreated with the vehicle. The remaining blood (23 ml) was used for the in vitro exposure to E5555 at concentrations of 20 ng/ml, 50 ng/ml, and 100 ng/ml. […] The platelet aggregation studies, Rapid Analyzers measures, and flow cytometry preparations were initiated within no more than 110 minutes following the blood draw, incubation with the drug, and preparation of the samples.
(§3) Formation of platelet-leukocyte aggregates was assessed by dual labeling with pan-platelet marker (CD151), and then with CD14, the macrophage receptor for endotoxin lipopolysaccharides (PharMingen, and Coulter, San Diego, Calif., USA). The tubes were then covered with aluminum foil and incubated at 37° C. for 40 minutes with gentle rotation. After incubation, samples were immediately analyzed on a Becton Dickinson FACScan flow cytometer. The instrument was set up to measure forward light scatter, and FITC fluorescence. All parameters were collected using four-decade logarithmic amplification. The data was retrieved in list mode files and then analyzed. P selectin was expressed as percent positive cells. Other antigens were expressed as log mean fluorescence intensity.
(§4) For flow cytometry (TRAP-stimulated) all of the above flow cytometry experiments were identically repeated utilizing prestimulation with 10 μmol/L TRAP for 5 minutes at 37° C. To determine statistics, a Paired Sign Test was used to define significance of differences between vehicle and E5555-treated groups. The Mann-Whitney U test was used to analyze nonparametric data. Normally distributed data were expressed as mean±standard error (m±SE), and skewed data as median (range). All P-values were two sided. All analysis was performed using the SPSS v9.0 program (SPSS Inc., Chicago, Ill.).

[2] = tested on: Thrombospondin-Receptor (CD36); assay: TRAP-stimulated whole blood flow cytometry, thrombospondin receptor; conditions: Mean ± SD
Method: as §1, §2, §3, §4

[3] = tested on: Thrombospondin-Receptor (CD36); assay: Unstimulated whole blood flow cytometry, thrombospondin receptor; conditions: for Thrombospondin-Receptor (CD36), Mean Fluorescence Intensity: unstimulated, Mean ± SD
Method: as §1, §2, §3

[4] = tested on: VTNR (CD51/61); assay: Unstimulated whole blood flow cytometry, vitronectin receptor; conditions: for VTNR (CD51/61), Mean Fluorescence Intensity: unstimulated, Mean ± SD
Method: as §1, §2, §3

[5] = tested on: VTNR (CD51/61); assay: TRAP-stimulated whole blood flow cytometry, vitronectin receptor; conditions: Mean ± SD
Method: as §1, §2, §3, §4

[6] = tested on: platelets; assay: Platelet aggregation induced by 10 μM TRAP; conditions: for Platelet Aggregation (%), TRAP 10 μM: Mean ± SD
Method: as §1, §2
Platelet counts were determined in each PRP sample with a Coulter Counter ZM (Coulter Co., Hialeah, Fla.). Platelet numbers were adjusted to 3.50×10^8/ml for aggregation using homologous platelet-poor plasma. Platelet aggregation was stimulated with 5 μM ADP, 1 μg/ml collagen, or 10 μM TRAP. All agonists were obtained from Chronolog Corporation (Havertown, Pa.) and Sigma (St. Louis, Miss.). Platelet aggregation experiments were performed using a Chrono-Log Lumi-Aggregometer (model 560-Ca). Aggregation curves were recorded for 4 minutes and analyzed according to internationally established standards using Aggrolink® software. Platelet aggregability was expressed as the percentage of light transmittance change from baseline using platelet-poor plasma as a reference.

[7] = tested on: P-selectin (CD62p); assay: Unstimulated whole blood flow cytometry, P-selectin; conditions: for P-selectin (CD62p), % positive cells: unstimulated, Mean ± SD
Method: as §1, §2, §3

[8] = E5555 20 ng/ml, Patients (ASA + C)
[9] = E5555 50 ng/ml, Patients (ASA + C)
[10] = E5555 100 ng/ml, Patients (ASA + C)
[11] = E5555 100 ng/ml, Patients (ASA)
[12] = overall summary, stimulation not stated

Structure (SMILES): Br.CCOc1cc2c(c(F)c1OCC)C(=N)N(CC(=O)c1cc(N3CCOCC3)c(OC)c(C(C)(C)C)c1)C2 [E5555, 1-(3-tert-butyl-4-methoxy-5-morpholinophenyl)-2-(5,6-diethoxy-7-fluoro-1-imino-1,3-dihydro-2H-isoindol-2-yl)ethanone hydrobromide]
- P-selectin (CD62p), % positive cells [1, 8]: 11 ± 5 % positive cells
- P-selectin (CD62p), % positive cells ([1]; E5555 20 ng/ml, Patients (ASA)): 22 ± 6 % positive cells
- P-selectin (CD62p), % positive cells ([1]; E5555 20 ng/ml, Volunteers): 31 ± 8 % positive cells
- P-selectin (CD62p), % positive cells [1, 9]: 8 ± 3 % positive cells
- P-selectin (CD62p), % positive cells ([1]; E5555 50 ng/ml, Patients (ASA)): 15 ± 4 % positive cells
- P-selectin (CD62p), % positive cells ([1]; E5555 50 ng/ml, Volunteers): 14 ± 3 % positive cells
- P-selectin (CD62p), % positive cells [1, 10]: 3 ± 1 % positive cells
- P-selectin (CD62p), % positive cells [1, 11]: 8 ± 4 % positive cells
- P-selectin (CD62p), % positive cells ([1]; E5555 100 ng/ml, Volunteers): 11 ± 3 % positive cells
- Thrombospondin-Receptor (CD36), Mean Fluorescence Intensity [2, 8]: 6 ± 1 MFI
- Thrombospondin-Receptor (CD36), Mean Fluorescence Intensity ([2]; E5555 20 ng/ml, Patients (ASA)): 6 ± 2 MFI
- Thrombospondin-Receptor (CD36), Mean Fluorescence Intensity ([2]; E5555 20 ng/ml, Volunteers): 9 ± 1 MFI
- Thrombospondin-Receptor (CD36), Mean Fluorescence Intensity [2, 9]: 5 ± 1 MFI
- Thrombospondin-Receptor (CD36), Mean Fluorescence Intensity ([2]; E5555 50 ng/ml, Patients (ASA)): 7 ± 1 MFI
- Thrombospondin-Receptor (CD36), Mean Fluorescence Intensity ([2]; E5555 50 ng/ml, Volunteers): 9 ± 2 MFI
- Thrombospondin-Receptor (CD36), Mean Fluorescence Intensity [2, 10]: 6 ± 2 MFI
- Thrombospondin-Receptor (CD36), Mean Fluorescence Intensity [2, 11]: 7 ± 2 MFI
- Thrombospondin-Receptor (CD36), Mean Fluorescence Intensity ([2]; E5555 100 ng/ml, Volunteers): 9 ± 1 MFI
- thrombospondin receptor expression, effect in words [3, 12]: significant reduction
- Thrombospondin-Receptor (CD36), Mean Fluorescence Intensity [3, 8]: 6.8 ± 1.9 MFI
- Thrombospondin-Receptor (CD36), Mean Fluorescence Intensity ([3]; E5555 20 ng/ml, Patients (ASA)): 7.2 ± 0.5 MFI
- Thrombospondin-Receptor (CD36), Mean Fluorescence Intensity ([3]; E5555 20 ng/ml, Volunteers): 8.4 ± 1.1 MFI
- Thrombospondin-Receptor (CD36), Mean Fluorescence Intensity [3, 9]: 7.0 ± 1.0 MFI
- Thrombospondin-Receptor (CD36), Mean Fluorescence Intensity ([3]; E5555 50 ng/ml, Patients (ASA)): 7.0 ± 0.7 MFI
- Thrombospondin-Receptor (CD36), Mean Fluorescence Intensity ([3]; E5555 50 ng/ml, Volunteers): 8.2 ± 0.8 MFI
- Thrombospondin-Receptor (CD36), Mean Fluorescence Intensity [3, 10]: 7.1 ± 1.2 MFI
- Thrombospondin-Receptor (CD36), Mean Fluorescence Intensity [3, 11]: 7.4 ± 0.9 MFI
- Thrombospondin-Receptor (CD36), Mean Fluorescence Intensity ([3]; E5555 100 ng/ml, Volunteers): 8.4 ± 1.0 MFI
- vitronectin receptor expression, effect in words [4, 12]: significant reduction
- VTNR (CD51/61), Mean Fluorescence Intensity [4, 8]: 7.9 ± 1.8 MFI
- VTNR (CD51/61), Mean Fluorescence Intensity ([4]; E5555 20 ng/ml, Patients (ASA)): 8.4 ± 1.5 MFI
- VTNR (CD51/61), Mean Fluorescence Intensity ([4]; E5555 20 ng/ml, Volunteers): 8.7 ± 0.6 MFI
- VTNR (CD51/61), Mean Fluorescence Intensity [4, 9]: 8.2 ± 1.6 MFI
- VTNR (CD51/61), Mean Fluorescence Intensity ([4]; E5555 50 ng/ml, Patients (ASA)): 8.6 ± 2.1 MFI
- VTNR (CD51/61), Mean Fluorescence Intensity ([4]; E5555 50 ng/ml, Volunteers): 9.1 ± 1.0 MFI
- VTNR (CD51/61), Mean Fluorescence Intensity [4, 10]: 9.0 ± 2.4 MFI
- VTNR (CD51/61), Mean Fluorescence Intensity [4, 11]: 8.3 ± 14 MFI
- VTNR (CD51/61), Mean Fluorescence Intensity ([4]; E5555 100 ng/ml, Volunteers): 9.6 ± 1.1 MFI
- VTNR (CD51/61), Mean Fluorescence Intensity [5, 8]: 10.2 ± 1.5 MFI
- VTNR (CD51/61), Mean Fluorescence Intensity ([5]; E5555 20 ng/ml, Patients (ASA)): 10.8 ± 2.1 MFI
- VTNR (CD51/61), Mean Fluorescence Intensity ([5]; E5555 20 ng/ml, Volunteers): 10.4 ± 1.3 MFI
- VTNR (CD51/61), Mean Fluorescence Intensity [5, 9]: 10.9 ± 1.6 MFI
- VTNR (CD51/61), Mean Fluorescence Intensity ([5]; E5555 50 ng/ml, Patients (ASA)): 10.5 ± 1.3 MFI
- VTNR (CD51/61), Mean Fluorescence Intensity ([5]; E5555 50 ng/ml, Volunteers): 10.1 ± 1.7 MFI
- VTNR (CD51/61), Mean Fluorescence Intensity [5, 10]: 11.0 ± 2.0 MFI
- VTNR (CD51/61), Mean Fluorescence Intensity [5, 11]: 9.9 ± 1.3 MFI
- VTNR (CD51/61), Mean Fluorescence Intensity ([5]; E5555 100 ng/ml, Volunteers): 10.7 ± 1.5 MFI
- TRAP-induced aggregation, effect in words ([6]; ASA-treated patients with coronary artery disease): fully inhibiting
- TRAP-induced aggregation, effect in words ([6]; CAD patients treated with ASA+clopidogrel): profound blockade
- Platelet Aggregation (%), TRAP 10 μM ([6]; E5555 20 ng/ml, CAD patients treated with ASA + clopidogrel): 2.2 ± 1.6 %
- Platelet Aggregation (%), TRAP 10 μM ([6]; E5555 20 ng/ml, CAD patients treated with ASA): 2.7 ± 1.4 %
- Platelet Aggregation (%), TRAP 10 μM ([6]; E5555 20 ng/ml, healthy volunteers): 2.1 ± 1.2 %
- Platelet Aggregation (%), TRAP 10 μM ([6]; E5555 50 ng/ml, CAD patients treated with ASA + clopidogrel): 1.8 ± 1.0 %
- Platelet Aggregation (%), TRAP 10 μM ([6]; E5555 50 ng/ml, CAD patients treated with ASA): 3.3 ± 1.8 %
- Platelet Aggregation (%), TRAP 10 μM ([6]; E5555 50 ng/ml, healthy volunteers): 1.3 ± 1.2 %
- Platelet Aggregation (%), TRAP 10 μM ([6]; E5555 100 ng/ml, CAD patients treated with ASA + clopidogrel): 2.7 ± 2.2 %
- Platelet Aggregation (%), TRAP 10 μM ([6]; E5555 100 ng/ml, CAD patients treated with ASA): 2.9 ± 2.0 %
- Platelet Aggregation (%), TRAP 10 μM ([6]; E5555 100 ng/ml, healthy volunteers): 2.7 ± 1.8 %
- TRAP-induced aggregation, effect in words ([6]; healthy volunteers, E5555 20, 50, and 100 ng/ml): inhibited completely
- TRAP-induced aggregation, effect in words ([6]; overall summary of the study): inhibited almost completely
- P selectin, effect in words [7, 12]: not affected
- P-selectin (CD62p), % positive cells [7, 8]: 7.6 ± 2.0 % positive cells
- P-selectin (CD62p), % positive cells ([7]; E5555 20 ng/ml, Patients (ASA)): 9.7 ± 1.5 % positive cells
- P-selectin (CD62p), % positive cells ([7]; E5555 20 ng/ml, Volunteers): 10.8 ± 2.0 % positive cells
- P-selectin (CD62p), % positive cells [7, 9]: 7.7 ± 2.2 % positive cells
- P-selectin (CD62p), % positive cells ([7]; E5555 50 ng/ml, Patients (ASA)): 10.1 ± 1.8 % positive cells
- P-selectin (CD62p), % positive cells ([7]; E5555 50 ng/ml, Volunteers): 12.3 ± 2.2 % positive cells
- P-selectin (CD62p), % positive cells [7, 10]: 8.0 ± 11.5 % positive cells
- P-selectin (CD62p), % positive cells [7, 11]: 10.7 ± 1.6 % positive cells
- P-selectin (CD62p), % positive cells ([7]; E5555 100 ng/ml, Volunteers): 11.4 ± 1.8 % positive cells
